PubChem BioAssay AID449762 (Southern Research Specialized Biocontainment Screening …, 2010)
Inconclusive results are not listed.

System: M. tuberculosis H37Rv growth inhibition, 7H9 media
Assay: M. tuberculosis growth inhibition, HTS (AID 449762);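 also: bacterial growth assessed after seven days of incubation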
Conditions: for IC90: measured here: IC90 growth inhibition

Compound | IC50 | IC90
COC(=O)c1cc(/C=C/c2ccccc2)on1 | 16.9 µM | > 100 µM
CCCCCOc1ccc(NC2=CC(=O)CCC2)cc1 | 52.4 µM | > 100 µM
COc1ccc(-c2csc(NC(C)c3nc4cc(Cl)c(N5CCCCC5)cc4n3CCCO)n2)cc1 (stereo unspecified) | 11.2 µM | 12.7 µM
c1ccc(CCN2CCN(c3ncnc4c3cnn4-c3ccccc3)CC2)cc1 | 21.3 µM | 43 µM
CCCCCCCCn1c2c(c(=N)c3c1CCC3)CCCC2 | 19 µM | 26.4 µM
CCOC(=O)c1sc(NC(=O)CN2C(=O)NC3(CC(C)CC(C)(C)C3)C2=O)cc1C (stereo unspecified) | 21.4 µM | 40.3 µM
C=C1C(=O)[C@@]23[C@H](O)C[C@@H]4C(C)(C)CC[C@H](O)[C@@]4(C)[C@@H]2CC[C@@H]1[C@H]3O | 3.04 µM | 4.05 µM
COc1cccc(C(=O)NC2CC3CCCC(C2)N3CC(=O)Nc2ccc(N(C)C)cc2)c1 (stereo unspecified) | 19.7 µM | 24.8 µM
CCc1c(C)sc2nc3c(C(=O)N4CCOCC4)cc(C(=O)c4cc(F)ccc4O)cn3c(=O)c12 | 47.3 µM | > 100 µM
Cn1ccnc1C(O)c1cc(C(C)(C)C)c(O)c(C(C)(C)C)c1 (stereo unspecified) |  | > 100 µM
Cc1nonc1OCCNCCNc1ccc([N+](=O)[O-])c2cccnc12 | 6.68 µM | 13.9 µM
N#Cc1c(-c2ccccc2)c(-c2ccccc2)nn(CC(=O)NNC(=O)Nc2ccc(Cl)c(Cl)c2)c1=O | 49.2 µM | 55.5 µM
N#Cc1ccc(CN2CCN(CC(=O)NCCc3ccc(Cl)cc3Cl)CC2)cc1 | 43.1 µM | 54 µM
CCCCNc1nc(N(C)c2ccccc2)nc(-n2ccnc2)n1 | 10.8 µM | > 25 µM
O=C(C[n+]1ccc(C(=O)c2ccccc2)cc1)Nc1ccc(C(F)(F)F)cc1 | 21.5 µM | 23.7 µM
COC(=O)Cn1nc(-c2ccccc2)c2cc(Cl)ccc21 | 8.72 µM | 51.7 µM
O=C(c1ccc(-c2cccc(C(F)(F)F)c2)o1)N1CCN(c2ccccc2O)CC1 | 18.5 µM | 26.1 µM
COc1ccc(OC)c(CN2CCN(C(=O)CNC(=O)c3ccc(C(C)(C)C)cc3)CC2)c1 | 47.4 µM | 67.8 µM
O=C(/C=C/c1ccc([N+](=O)[O-])cc1)NC1CC2CCC1C2 (stereo unspecified) | 44.6 µM | 84.1 µM
COc1ccc(CNC[C@@H](CCCCN(C)Cc2ccc(OC)cc2)N2C[C@H](c3ccccc3)N(CCc3ccc(Cl)c(Cl)c3)C(=O)C2=O)cc1 | 5.48 µM | 8.71 µM
Cc1cc(N2CCN(c3ccc(C(F)(F)F)cc3[N+](=O)[O-])CC2)c2ccccc2n1 | 21.4 µM | 23.7 µM
C/C(=N\NC(=O)c1ccc(O)cc1)c1ccc2c(c1)Nc1ccccc1S2 | 24.8 µM | 62.8 µM

Compound | IC50 | IC90
CN(C)N=Nc1nc[nH]c1C(N)=O | 4.86 µM | 6.76 µM
CCn1c(SCC(=O)Nc2ccc3c(c2)oc2ccccc23)nnc1-c1ccc(N)cc1 |  | > 100 µM
O=C(NC1CCN(C(=O)N2c3ccccc3Sc3ccccc32)CC1)c1ccccc1F | 86.1 µM | > 100 µM
COC(=O)C1C(O)C(C)C(O)C(C)/C=C\C=C(/C)C(=O)Nc2c(C)c(OC(C)=O)c3c(c2O)C(=O)C(C)=C2OCOC(=C23)/C(C)=C/C(C)(O)C(O)C(C)C1O (stereo unspecified) | < 0.2 µM | < 0.2 µM
COc1nn(-c2ccccc2)c(=O)c(Cl)c1Cl | 5.52 µM | 9.06 µM
O=C1C(=O)c2ccccc2-c2ccccc21 | 6.31 µM | 6.91 µM
c1ccc(-c2nc(N3CCCC3)nc3ccccc23)cc1 | 37.5 µM | 51.8 µM
Cc1ccc(NC(=O)c2sccc2-n2cccc2)c(C)c1 | 28.2 µM | 82.9 µM
Nc1nc(Cl)cc(N2CCC(c3cc(-c4ccc(Cl)cc4Cl)n[nH]3)CC2)n1 | 22.9 µM | 25.9 µM
O=S(=O)(Nc1ccc2[nH]ncc2c1)c1ccccc1Cl | 11.6 µM | 19.5 µM
CSCCOC(=O)COc1ccc(/C=N/NC(=O)c2c(Cl)cnn2C)cc1 | 9.04 µM | 22.6 µM
CCOC(=O)c1ccc(-c2c(-c3ccc4c(c3)OCO4)noc2C)cc1F | 33.3 µM | 54 µM
O=C(CN1CCN(Cc2ccc(Cl)cc2)CC1)N/N=C/C=C/c1ccccc1[N+](=O)[O-] | 26.8 µM | 37.6 µM
Cc1cc(Nc2ccccc2)c2c([N+](=O)[O-])ccc(C)c2n1 | 94.4 µM | > 100 µM
Cc1ccc(Nc2nc(N)nc(CN3CCc4ccccc4C3)n2)cc1 | 2.2 µM | 8.89 µM
COC(=O)c1ccc(N/C(C)=C/C(=O)c2ccc(C)o2)cc1 | 97.4 µM | > 100 µM
COc1ccc(OCc2cccc(C(=O)Nn3cc([N+](=O)[O-])cn3)c2)cc1 | 9.92 µM | 36.5 µM
Cc1ccc(Nc2nc(CSc3nnc(-c4cccs4)o3)cs2)cc1 | 40.7 µM | > 100 µM
COc1ccccc1N1CCN(/N=C/C(Cl)=C/c2ccccc2)CC1 | 52.7 µM | > 100 µM
CON(C)c1nc(C2CCCCC2)c2cc(C)ccc2n1 | 60.1 µM | 75.5 µM
O=C(Oc1ccc2ccccc2c1)c1cncc(Br)c1 | 13 µM | 60.3 µM
OC(COC(c1ccc(Cl)cc1)c1ccc(Cl)cc1)CN1CCc2ccccc2C1 (stereo unspecified) | 18.8 µM | 24.7 µM

Compound | IC50 | IC90
CC(C)(C)c1ccc(OCCC(=O)OCC(=O)NC(=O)NC2CCCC2)cc1 | 5.45 µM | 8.58 µM
CCc1ccc(NCc2ccc(OC)c(Cn3ccnc3)c2)cc1 | 21.5 µM | 23.9 µM
C[Se]C[C@@H](N)C(=O)O | 51 µM | 69.6 µM
Cc1cc(-c2n[nH]c(=S)n2/N=C/C(Br)=C/c2ccccc2)n[nH]1 | 2.08 µM | 5.63 µM
N/C(=N\NC(=O)c1sccc1OCc1ccc(Cl)cc1Cl)c1ccccn1 | 15.7 µM | 46 µM
CCOC(=O)c1ccc(NC2=CC(=O)C(=O)c3ccccc32)cc1 | 31.7 µM | 39.7 µM
CCc1ccc(-c2nn(-c3ccccc3)cc2CSC(=N)N)cc1 | 17.5 µM | 22.4 µM
CCCCOC(=O)NS(=O)(=O)c1sc(CC(C)C)cc1-c1ccc(Cn2c(CC)nc3c(C)cc(C)nc32)cc1 | 26.4 µM | 35.4 µM
CCc1ccc(C2=NN(c3ccc(S(N)(=O)=O)cc3)C(c3ccc(F)cc3)C2)cc1 (stereo unspecified) | 36.2 µM | 48.7 µM
O=C1c2ccccc2-c2onc3ccc(Oc4ccccc4)c1c23 | 5.64 µM | 10.9 µM
Cc1[nH]c2ccccc2c1C(=O)COC(=O)c1ccc([N+](=O)[O-])s1 | 0.59 µM | 2 µM
O=C(NC1CCCCC1)C(c1cccs1)N(CCCN1CCOCC1)C(=O)c1ccc(-c2ccccc2)[nH]1 (stereo unspecified) | 40.2 µM | 55.5 µM
CCOC(=O)CSC1=C(C#N)C(c2ccc(C)cc2)C2=C(CCCC2=O)N1 (stereo unspecified) | 43.9 µM | > 100 µM
CSc1cccc(NC(=O)CCS(=O)(=O)c2cccc3nonc23)c1 | 1.72 µM | 7.46 µM
O=C(NNc1nc2ccccc2s1)c1ccccc1F | 22.2 µM | > 100 µM
Clc1ccc(Nc2ccc(-n3ccnc3)nn2)cc1Cl | 18.9 µM | 25.3 µM
Cc1ccc2c(c1)c1c3n2CCN=C3CCC1 | 10.3 µM | 19 µM
c1ccc(CN2CCN(CCCNc3ccc4nnc(-c5ccccc5)n4n3)CC2)cc1 | 19.4 µM | 24.7 µM
Cc1cc2c(cc1C)CSC(c1c(O)ccc3ccccc13)SC2 | 45.3 µM | > 100 µM
COC(=O)c1c(NC(=O)CCl)sc(C(=O)N2CCOCC2)c1C | 2.19 µM | 5.65 µM
CC(C)(C)c1ccc(C(=O)NNc2cc(N3CCCCC3)nc(N3CCCCC3)n2)cc1 | 60.6 µM | 74.8 µM
Cc1ccc(-c2nc3ccsc3c(=O)o2)cc1 | 0.61 µM | > 100 µM

Compound | IC50 | IC90
CN1C(C(=O)NCc2ccc(OC(F)(F)F)cc2)CC2Cn3c(nc4cc(Cl)c(Cl)cc43)C21 (stereo unspecified) | 39.8 µM | 55.6 µM
CCCCCCCCNC(C)C(O)c1ccc(SC(C)C)cc1 (stereo unspecified) | 22.5 µM | 31.8 µM
C#C[C@]1(O)CC[C@H]2[C@@H]3CCc4cc(OC5CCCC5)ccc4[C@H]3CC[C@@]21C | 35.5 µM | 48 µM
CCCCC(=O)Nc1sc2c(c1C(=O)OCC)CCC(C=O)=C2Cl | 14.6 µM | 44.5 µM
CCOC(=O)c1c(C)n(-c2ccc(C)cc2)c2ccc(OCC(O)CNCC3CCCO3)cc12 (stereo unspecified) | 22.7 µM | 31 µM
O=C(NCCC1=CCCCC1)NC12CC3CC(CC(C3)C1)C2 | < 0.2 µM | 0.34 µM
Cn1nc(C(F)(F)F)c2cc(NC(=O)OCC(C)(C)C)sc21 | 13.2 µM | 40 µM
COc1ccc(C2c3[nH]c4ccccc4c3CCN2C(=O)c2cc3ncccn3n2)c(F)c1 (stereo unspecified) |  | > 100 µM
O=c1c(-c2cnn(-c3ccccc3)c2)coc2cc(O)ccc12 | 12.1 µM | > 100 µM
CC(C)Nc1nc(NC(C)C)nc(N(C)N)n1 | 5.75 µM | 7.57 µM
Cc1ccc(-n2cccc2C(=S)N=P(N(C)C)(N(C)C)N(C)C)cc1 | 18.4 µM | 25.5 µM
CCN1/C(=C/C=C/c2oc3ccc(-c4ccccc4)cc3[n+]2CC)Oc2ccc(-c3ccccc3)cc21 | 3.74 µM | 4.74 µM
COc1cc(NC(=O)c2cnc(N)s2)cc(C(=O)Nc2cccc(C(F)(F)F)c2)c1 | 52 µM | 78.8 µM
CN(CCO)c1cc(Sc2nc3ccccc3s2)c2nonc2c1[N+](=O)[O-] | 27 µM | > 100 µM
Cc1cccc(CNc2ncnc3ccc(-c4ccc5c(c4)OCCO5)cc23)c1 | 5.93 µM | 6.77 µM
Cn1cnnc1SCc1ccc(-c2ccc(Br)cc2)o1 | 85.1 µM | > 100 µM
CCc1cc2c(=O)c(-c3cnn(-c4ccccc4)c3)c(C)oc2c(CN2CCCCC2)c1O | 2.58 µM | 21.7 µM
O=C(Nc1ccc2nsnc2c1)NC1CCCCC1 | 26 µM | > 50 µM
COC1=CC(=O)c2ccccc2C1=O | 16 µM | 21.9 µM
O=C(NC1CCN(Cc2ccccc2)CC1)c1cccc(S(=O)(=O)Nc2ccc(SC(F)F)cc2)c1 | 15.5 µM | 21.9 µM
CC1(c2nnc(-c3ccncc3)o2)CC(c2ccccc2)=NO1 (stereo unspecified) | 63.3 µM | > 100 µM
